Measurements published in US11672788B2, “Histone deacetylase inhibitors for immunomodulation in tumor microenvironment” (GREAT NOVEL THERAPEUTICS BIOTECH & MEDICALS CORPORATION, priority 2020, dated 2023).

Columns and labels:
MDA-MB-231 = assay: In vitro cytotoxicity MTT assay; assay type: cell-based, human; conditions: IC50 ± SD
Procedure: (§1) Six different cell lines were used, including human breast cancer cell line MDA-MB-231 (6×10^3), MDA-MB-453 (2.4×10^4), SK-BR-3 (6×10^3), human breast epithelial cell line M10 (6×10^3), human gastric carcinoma NCI-N87 (2.4×10^4), and human colorectal adenocarcinoma SW48 (2.4×10^4), and seeded in a 96 well plate. Cell lines were obtained from Bioresource Collection and Research Center, BCRC, Taiwan. […] After 72 h, MTT assay (Cayman™) was used to determine the cellular viability.

M10 = assay: In vitro cytotoxicity MTT assay; assay type: cell-based, human; conditions: IC50 ± SD
Procedure: as §1

MDA-MB-453 = assay: In vitro cytotoxicity MTT assay; assay type: cell-based, human; conditions: IC50 ± SD
Procedure: as §1

SW48 = assay: In vitro cytotoxicity MTT assay; assay type: cell-based, human; conditions: IC50 ± SD
Procedure: as §1

SW48 cells [1] = assay: Cell cycle arrest by PI flow cytometry; assay type: cell-based, human
Procedure: (§2) A PI/RNase staining assay (BD Bioscience™) was performed to reveal the presence of cell cycle arrest and apoptotic cells after treatment with GNTbm compounds, Chidamide and Entinostat. […] After treatment cells were harvested, fixed with 80% ethanol for 24 h, washed with 1×PBS and stained with PI/RNase for 15 min at room temperature. The cells were then analyzed using Flow Cytometer within 1 h.

Saturation solubility = assay type: physicochemical; conditions: ddH2O, 25° C., 90 minutes; mean ± SD; BDL: Below detection limit
Procedure: Samples of 5 mg of compounds were added to 5 ml volumetric flasks containing ddH2O and shaken at 100 rpm in an incubator at 25° C. for 90 minutes. The resulting suspension was filtered through a 0.22 μm filter. The concentrations of compounds were determined spectrophotometrically at 256 nm. The saturation solubility of each sample was determined in triplicates and the mean value and standard deviation were reported.

NCI-N87 = assay: In vitro cytotoxicity MTT assay; assay type: cell-based; conditions: Homo sapiens, 72 h, IC50 ± SD
Procedure: as §1

SK-BR-3 = assay: In vitro cytotoxicity MTT assay; assay type: cell-based; conditions: Homo sapiens, 72 h, IC50 ± SD
Procedure: as §1

SW48 cells [2] = assay: Cell apoptosis (sub-G1) by PI flow cytometry; assay type: cell-based, human; conditions: 72 h
Procedure: as §2

HDAC3 = HDAC3 (Homo sapiens (Human), UniProt O15379); assay: HDAC3 enzymatic kinetic assay; assay type: biochemical; conditions: 2 μM; 20 min, 40 min and 60 min
Procedure: HDAC3 enzymatic kinetic assay was performed according to standard Protocols (Fluorgenic HDAC3 assay kit, BPS Bioscience™). […] After incubation, assay developer was added to the samples and the absorbance was read at fluorogenic wavelength. The relative inhibition to HDAC3 activity in each sample was determined.

MDA-MB-231 cells [3] = assay: Cell cycle arrest by PI flow cytometry; assay type: cell-based, human; conditions: MDA-MB-231, 3.125 μM, 72 h
Procedure: as §2

M10 cells [4] = assay: Cell cycle arrest by PI flow cytometry; assay type: cell-based, human; conditions: M10, 12.5 μM, 72 h
Procedure: as §2

[5] = tested on: histone H3 acetylation (AcH3) in MDA-MB-231 cells; assay: Western blot of histone H3 acetylation; assay type: cell-based, human; conditions: MDA-MB-231, 1.0 μM, 24 h
Procedure: Human breast cancer MDA-MB-231 cells and human colorectal adenocarcinoma SW48 cells were analyzed. MDA-MB-231 and SW48 were obtained from Bioresource Collection and Research Center (BCRC, Taiwan). MDA-MB-231 and SW48 were grown at 37° C. under humidified air supplemented without CO2 in Leibovitz's L-15 (cat. #11415114, Thermo Fisher Scientific) containing 10% heat inactivated fetal calf serum (Thermo Scientific), 1× concentration of MycoZap antibiotics (cat. #VZA-2011, Lonza). Cells were treated with GNTbm compounds series, Chidamide or Entinostat for different time periods or at varied doses. Cells were treated with indicated doses for 24 h or cells were treated with indicated doses for different time periods. Cell pellets were dissolved with RIPA buffer (cat. #20-188, Merck) with protease and phosphatase inhibitors (cat. #K272, BioVision) and clarified by centrifugation. Equal amounts of total protein were resolved by SDS-PAGE and transferred to polyvinylidene fluoride membranes (cat. #1620177, BIO-RAD). Blots were incubated with primary antibodies against β-actin (cat. #sc-47778, Santa Cruz Biotechnology), Histone 3ac (cat. #61637, Active Motif), and HRP secondary antibodies anti-rabbit (ab6721, Abcam) and anti-mouse (sc-2005, Santa Cruz). Blots were developed using the ECL Western Blotting Substrate (cat. #sc-2048, Santa Cruz Biotechnology) Image blots were analyzed with the iBright FL1000 (Thermo Fisher Scientific) imaging systems.

HDAC11 = HDAC11 (Homo sapiens (Human), UniProt Q96DB2); assay: HDACs 1-11 enzymatic inhibition by BPS Bioscience
Procedure: HDAC assay was performed according to standard Protocols (Fluorgenic HDACs 1-11 assay kit, BPS Bioscience™). […] After 0.5 h, assay developer was added to the samples and the absorbance was read at fluorogenic wavelength. The relative inhibition to HDACs 1, 2, 3, 4, 5, 6, 7, 8, 9, and 11 activities was determined in each sample. […] All of the compounds were dissolved in DMSO. The serial dilution of the compounds was first performed in 100% DMSO with the highest concentration at 1 mM. Each intermediate compound dilution (in 100% DMSO) would then get directly diluted 10× fold into assay buffer for an intermediate dilution of 10% DMSO in HDAC assay buffer and 5 μl of the dilution was added to a 50 μl reaction so that the final concentration of DMSO is 1% in all of the reactions. The enzymatic reactions for the HDAC enzymes were conducted in duplicate at 37° C. for 30 minutes in a 50 μl mixture containing HDAC assay buffer, 5 μg BSA, an HDAC substrate, a HDAC enzyme and a test compound. After enzymatic reactions, 50 μl of 2×HDAC Developer was added to each well for the HDAC enzymes and the plate was incubated at room temperature for an additional 15 minutes. Fluorescence intensity was measured at an excitation of 360 nm and an emission of 460 nm using a Tecan Infinite M1000 microplate reader. HDAC activity assays were performed in duplicate at each concentration. The fluorescent intensity data were analyzed using the computer software, Graphpad Prism. In the absence of the compound, the fluorescent intensity (Ft) in each data set was defined as 100% activity. In the absence of HDAC, the fluorescent intensity (Fb) in each data set was defined as 0% activity. The percent activity in the presence of each compound was calculated according to the following equation: % activity=(F−Fb)/(Ft−Fb), where F=the fluorescent intensity in the presence of the compound. The values of % activity versus a series of compound concentrations were then plotted using non-linear regression analysis of Sigmoidal dose-response curve generated with the equation Y=B+(T−B)/1+10((Log EC50−X)×Hill Slope), where Y=percent activity, B=minimum percent activity, T=maximum percent activity, X=logarithm of compound and Hill Slope=slope factor or Hill coefficient. The IC50 value was determined by the concentration causing a half-maximal percent activity.

MDA-MB-231 cells [6] = assay: Cell apoptosis (sub-G1) by PI flow cytometry; assay type: cell-based, human; conditions: MDA-MB-231, 6.25 μM, 72 h
Procedure: as §2

M10 cells [7] = assay: Cell apoptosis (sub-G1) by PI flow cytometry; assay type: cell-based, human; conditions: M10, 12.5 μM, 72 h
Procedure: as §2

CT26 cells = assay: Tumor rechallenge study (immune memory) in tumor-bearing mice; assay type: in vivo; conditions: Exp 1; mice resistant to CT26 re-challenge
Procedure: All mice with PR/CR response after treatment went rechallenged with CT26 cells on the contralateral side (please see Table 6). The rechallenge with CT26 was performed on day 33, which was 7 days (day 33) after first tumor assessment (day 26), with injection of 5×10^6 CT26 cells to the right flank of each mouse. After rechallenge with CT26 cells, the tumor was allowed to grow for another 7 days (day 40) to determine the baseline as 1 fold. After a further 10 days (day 50), the tumor growth was evaluated for the rechallenge. If both of the following criteria are met, the response will be considered as relapse: first, the tumor size over 2 folds when compared to that of baseline; second, the tumor volume at day 50 was over 300 mm^3. Relapse happens when immune memory activity is not sufficiently activated. If the tumor growth is inhibited, it means the immune memory is activated.
The mice were treated with different regimens for 16 days, and then the first tumor assessment was performed (day 26). […] Then rechallenge was performed with the same kind of cancer cells (CT26; 5×10^6) inoculated on the opposite flank for about another 7 days (day 40), and then the tumor volume would be determined as baseline (1 fold). The rechallenge tumor was allowed to grow for 10 days (day 50), and then the tumor size was measured to evaluate the immune memory as positive or negative. […]

CT26 tumor [8] = assay: Anti-cancer activity in CT26 tumor-bearing BALB/c mice; assay type: in vivo; conditions: for ORR (%): k-30 compounds 50 mg/kg, Regorafenib 30 mg/kg po daily; for ORR (%) / CR / PD / PR: first tumor assessment; for CR / PD / PR / CR^& / PD^& / PR^& / SD^&: number of mice; for ORR (%)^& / CR^& / PD^& / PR^& / SD^&: second tumor assessment on day 40
Procedure: Six- to eight-week-old male BALB/c mice (National Laboratory Animal Center, Taiwan) were used in each treatment group for all animal experiments. […] CT26 cell line was purchased from ATCC. CT26 tumor cells were grown in McCoy's 5A supplemented with 10% (vol/vol) FBS at 37° C., 5% CO2. […] Tumors were allowed to grow for 8-11 days (tumor size about 150-250 mm^3) before randomization and treatment. Animals were euthanized when tumors reached more than 3000 mm^3 […]. CT26-bearing mice were given 2.5 mg/kg of anti-IgG (cat. #BE0089, Lot #716719J3, Bio X Cell) and anti-PD-1 (cat. #BE0146, Lot #735019J3, Bio X Cell) antibody by i.p. administration on days 8, 11, 14, 17, 20 and 23 post tumor implantation, and all antibodies were diluted to appropriate concentrations in 100 μL of sterile PBS (pH 7.4) (Invitrogen Life Technologies). […] The anti-cancer activity was measured from the start of the treatment until the tumor volume reached 3,000 mm^3. Tumor volume was calculated as length×width^2×0.5.
The BALB/c mice bearing murine CT26 colon tumors were treated with various therapeutic modalities as indicated. […] CT26 tumor-bearing mice were euthanized when tumor volume reached 3000 mm^3 after tumor implantation. […] After 16 days of treatment, we continued to monitor the tumor size up to day 60. When tumor growth reappeared and tumor size reached at least 5 fold in mice with CR or PR response after first tumor assessment, it was defined as relapse/recurrence. […] Furthermore, we also investigate epigenetic immunomodulatory properties in series of GNTbm compounds including GNTbm-05/k-30, GNTbm-11/k-30, GNTbm-38/k-30 and GNTbm-39/k-30.

CT26 tumor [9] = assay: Survival rate in CT26 tumor-bearing mice; assay type: in vivo; conditions: Exp 1
Procedure: The administration of antibody or drugs was performed for 16 days from day 8 to day 23. The tumor continued to grow in the tumor-bearing mice. The tumor volume of the mice was measured once every three or four days (twice/week). The tumor-bearing mice were regarded as dead when the tumor volume reached 3,000 mm^3. All treatment groups were recorded and analyzed.

Sequence of HDAC3 (O15379 whole entry): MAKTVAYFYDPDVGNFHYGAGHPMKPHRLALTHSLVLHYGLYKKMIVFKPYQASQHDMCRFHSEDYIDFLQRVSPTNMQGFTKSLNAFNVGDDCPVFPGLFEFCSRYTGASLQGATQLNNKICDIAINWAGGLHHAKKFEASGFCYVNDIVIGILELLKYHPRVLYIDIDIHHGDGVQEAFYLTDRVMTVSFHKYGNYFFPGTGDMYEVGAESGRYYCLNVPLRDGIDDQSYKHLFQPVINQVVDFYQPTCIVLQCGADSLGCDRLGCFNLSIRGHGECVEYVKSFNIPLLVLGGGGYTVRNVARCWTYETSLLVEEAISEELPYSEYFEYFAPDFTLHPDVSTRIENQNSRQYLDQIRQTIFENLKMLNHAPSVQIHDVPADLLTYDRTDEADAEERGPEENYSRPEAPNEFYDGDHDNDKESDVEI
Sequence of HDAC3 (Q9Y618 395-489 partner): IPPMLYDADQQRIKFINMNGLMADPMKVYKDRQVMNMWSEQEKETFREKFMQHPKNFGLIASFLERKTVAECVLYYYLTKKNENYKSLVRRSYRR
Sequence of HDAC11 (Q96DB2 whole entry): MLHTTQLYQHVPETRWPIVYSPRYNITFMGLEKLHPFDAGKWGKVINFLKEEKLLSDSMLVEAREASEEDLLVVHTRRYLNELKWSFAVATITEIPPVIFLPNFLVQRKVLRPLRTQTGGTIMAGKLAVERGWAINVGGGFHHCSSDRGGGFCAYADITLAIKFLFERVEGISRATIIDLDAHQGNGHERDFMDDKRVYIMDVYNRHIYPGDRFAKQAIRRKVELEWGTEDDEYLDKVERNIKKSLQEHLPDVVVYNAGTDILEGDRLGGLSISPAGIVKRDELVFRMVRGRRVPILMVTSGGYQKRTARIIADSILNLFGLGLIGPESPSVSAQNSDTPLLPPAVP

## Nc1cc(F)ccc1NC(=O)c1ccc(CNC(=O)/C=C/c2cccnc2)cc1 [Chidamide, reference compound]
MDA-MB-231; 72 h
  IC50: 17.4 ± 1.98 µM
MDA-MB-231; Homo sapiens, MDA-MB-231, 72 h
  IC50: 25.6 ± 3.05 µM
M10; 72 h
  IC50: 4.94 ± 0.87 µM
M10; Homo sapiens, M10, 72 h
  IC50: 2.72 ± 2.6 µM
MDA-MB-453; 72 h
  IC50: 1.36 ± 0.12 µM
MDA-MB-453; Homo sapiens, MDA-MB-453, 72 h
  IC50: 1.77 ± 0.02 µM
SW48; 72 h
  IC50: 5.43 ± 1.06 µM
SW48 cells [1]; SW48, 0.3125 μM, 72 h
  Percentage of Cell Cycle Distribution G0/G1: 65.7%
  Percentage of Cell Cycle Distribution G2/M: 16.7%
  Percentage of Cell Cycle Distribution S: 17.6%
SW48 cells [1]; SW48, 0.625 μM, 72 h
  Percentage of Cell Cycle Distribution G0/G1: 68.1%
  Percentage of Cell Cycle Distribution G2/M: 17.5%
  Percentage of Cell Cycle Distribution S: 14.4%
SW48 cells [1]; SW48, 1.25 μM, 72 h
  Percentage of Cell Cycle Distribution G0/G1: 70.6%
  Percentage of Cell Cycle Distribution G2/M: 15.3%
  Percentage of Cell Cycle Distribution S: 14.1%
SW48 cells [1]; SW48, 5 μM, 72 h
  Percentage of Cell Cycle Distribution G0/G1: 79.9%
  Percentage of Cell Cycle Distribution G2/M: 11.6%
  Percentage of Cell Cycle Distribution S: 8.5%
SW48 cells [1]; SW48, doses of Table 12
  Cell cycle arrest: induced cell cycle arrest in the G0/G1 phase
Saturation solubility
  Saturation Solubility: BDL
NCI-N87
  IC50: 3.09 ± 0.2 µM
SK-BR-3
  IC50: 3.24 ± 0.98 µM
SW48 cells [2]; SW48, 0.3125 μM
  Percentages of Cell Apoptosis: 9.0%
SW48 cells [2]; SW48, 0.625 μM
  Percentages of Cell Apoptosis: 10.2%
SW48 cells [2]; SW48, 1.25 μM
  Percentages of Cell Apoptosis: 15.1%
SW48 cells [2]; SW48, 5 μM
  Percentages of Cell Apoptosis: 35.4%
HDAC3
  Inhibition of HDAC 3 enzyme activities (kinetics): stronger inhibition of HDAC 3 enzyme activities than Entinostat

## Nc1ccccc1NC(=O)c1ccc(CNC(=O)OCc2cccnc2)cc1 [Entinostat, reference compound]
MDA-MB-231; Homo sapiens, MDA-MB-231, 72 h
  IC50: 13.2 ± 1.34 µM
M10; Homo sapiens, M10, 72 h
  IC50: 4.34 ± 0.01 µM
MDA-MB-453; Homo sapiens, MDA-MB-453, 72 h
  IC50: 1.82 ± 0.024 µM
SW48; Homo sapiens, SW48, 72 h
  IC50: 5.21 ± 0.37 µM
MDA-MB-231 cells [3]
  Cell cycle arrest: significantly induced cell cycle arrest in G0/G1 phase
SW48 cells [1]; SW48, 3.125 μM, 72 h
  Cell cycle arrest: significantly induced cell cycle arrest in G0/G1 phase
  Cells in G0/G1 phase: 72.1%
M10 cells [4]
  Cell cycle arrest: significantly induced cell cycle arrest of M10 cells in the G2/M phase
  Cells in G2/M phase: 20.2%
[5]
  Level of histone H3 acetylation: significantly increased the level of histone H3 acetylation
SK-BR-3
  IC50: 1.94 ± 0.1 µM
HDAC11
  IC50: > 10 µM
MDA-MB-231 cells [6]
  Induction of apoptosis (sub-G1 phase): significantly induced apoptosis
SW48 cells [2]; SW48, 6.25 μM
  Induction of apoptosis (sub-G1 phase): significantly induced apoptosis
M10 cells [7]
  Induction of apoptosis (sub-G1 phase): significantly induced apoptosis in M10 cells

## CNC(=O)c1cc(Oc2ccc(NC(=O)Nc3ccc(Cl)c(C(F)(F)F)c3)c(F)c2)ccn1 [Regorafenib]
CT26 cells
  Immunity (rechallenge): 100% (1/1)
CT26 tumor [8]; Exp 1, initial tumor volume 245 mm3, strict criteria (PR ≤1 times)
  ORR (%): 11%
CT26 tumor [8]; Exp 1
  CR: 1
  PD: 1
  PR: 0
  ORR (%)^&: 22%
  CR^&: 2
  PD^&: 5
  PR^&: 0
  SD^&: 2
CT26 tumor [8]; Exp 1, tumor growth at least 5 fold in mice with CR or PR after first assessment, monitored up to day 60
  Relapse (recurrence): 0% (0/1)
CT26 tumor [8]; Exp 2, initial tumor volume 192 mm3
  ORR (%): 0%
CT26 tumor [8]; Exp 2
  CR: 0
  PD: 8
  PR: 0
  ORR (%)^&: 0%
  CR^&: 0
  PD^&: 9
  PR^&: 0
  SD^&: 0
CT26 tumor [9]
  Survival rate (%): 11%
